Target: Transient receptor potential cation channel subfamily M member 7 (Mus musculus) (UniProt Q923J1)
Assay: Inhibition of Tet-induced Flag-tagged mouse TRPM7 expressed in HEK293 cells assessed as inhibition of channel-mediated cell death in presence of Mg2+ incubated for 24 to 48 hrs by propidium iodide uptake assay
Type: cell-based
Design: concentration or dose not given beside the values
Conditions: concentration not given here

Sequence of Transient receptor potential cation channel subfamily M member 7 (Mus musculus) (Q923J1 whole entry): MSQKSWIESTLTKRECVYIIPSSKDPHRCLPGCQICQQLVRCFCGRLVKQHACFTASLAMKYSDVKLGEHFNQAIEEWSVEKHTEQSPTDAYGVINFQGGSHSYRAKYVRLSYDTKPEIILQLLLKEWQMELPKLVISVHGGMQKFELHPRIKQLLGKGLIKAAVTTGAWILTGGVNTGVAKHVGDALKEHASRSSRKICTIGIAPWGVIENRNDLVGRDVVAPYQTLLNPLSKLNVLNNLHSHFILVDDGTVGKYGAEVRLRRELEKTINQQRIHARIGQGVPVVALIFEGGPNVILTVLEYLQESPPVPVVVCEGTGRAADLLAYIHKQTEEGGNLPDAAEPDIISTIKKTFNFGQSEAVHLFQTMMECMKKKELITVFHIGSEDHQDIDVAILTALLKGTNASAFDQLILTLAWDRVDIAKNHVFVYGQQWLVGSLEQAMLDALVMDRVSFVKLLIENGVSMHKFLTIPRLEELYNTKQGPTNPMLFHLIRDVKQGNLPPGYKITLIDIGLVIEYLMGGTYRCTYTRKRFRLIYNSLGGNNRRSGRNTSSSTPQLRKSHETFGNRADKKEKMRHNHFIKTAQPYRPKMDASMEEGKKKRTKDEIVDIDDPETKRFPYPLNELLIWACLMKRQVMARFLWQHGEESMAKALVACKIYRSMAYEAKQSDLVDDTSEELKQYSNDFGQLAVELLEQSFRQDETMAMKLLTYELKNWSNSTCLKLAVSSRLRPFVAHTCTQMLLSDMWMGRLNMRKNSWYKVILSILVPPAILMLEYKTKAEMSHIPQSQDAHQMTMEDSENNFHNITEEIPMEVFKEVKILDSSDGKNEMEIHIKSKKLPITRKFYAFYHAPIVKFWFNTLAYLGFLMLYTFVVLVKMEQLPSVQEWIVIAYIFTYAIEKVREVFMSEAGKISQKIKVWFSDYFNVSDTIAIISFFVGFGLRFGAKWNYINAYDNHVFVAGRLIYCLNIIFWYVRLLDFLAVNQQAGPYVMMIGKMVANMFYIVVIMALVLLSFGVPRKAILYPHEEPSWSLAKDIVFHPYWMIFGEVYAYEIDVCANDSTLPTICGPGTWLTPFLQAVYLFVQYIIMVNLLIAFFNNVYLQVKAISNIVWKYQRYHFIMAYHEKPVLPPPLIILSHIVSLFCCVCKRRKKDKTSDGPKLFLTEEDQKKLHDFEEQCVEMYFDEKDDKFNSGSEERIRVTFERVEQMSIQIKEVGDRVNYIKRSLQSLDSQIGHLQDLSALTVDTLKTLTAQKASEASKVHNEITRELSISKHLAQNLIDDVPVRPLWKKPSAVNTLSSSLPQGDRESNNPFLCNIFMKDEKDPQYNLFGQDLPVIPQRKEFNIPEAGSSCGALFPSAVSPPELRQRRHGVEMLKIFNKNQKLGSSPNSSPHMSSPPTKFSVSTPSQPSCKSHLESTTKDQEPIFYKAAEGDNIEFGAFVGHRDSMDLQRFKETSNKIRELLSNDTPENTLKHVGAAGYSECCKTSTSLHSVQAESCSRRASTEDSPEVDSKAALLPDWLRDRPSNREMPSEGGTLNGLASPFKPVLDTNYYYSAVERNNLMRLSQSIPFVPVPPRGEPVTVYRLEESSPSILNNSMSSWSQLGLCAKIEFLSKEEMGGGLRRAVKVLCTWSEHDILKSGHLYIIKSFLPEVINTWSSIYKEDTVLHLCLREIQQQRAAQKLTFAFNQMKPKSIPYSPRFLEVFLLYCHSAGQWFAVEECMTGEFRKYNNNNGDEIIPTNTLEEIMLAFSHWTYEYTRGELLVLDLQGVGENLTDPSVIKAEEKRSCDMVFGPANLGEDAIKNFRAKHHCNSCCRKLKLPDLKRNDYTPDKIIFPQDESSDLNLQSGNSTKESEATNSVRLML

Row | SMILES | inhibition
1 | CCC1(c2cccc(OC)c2)CCCC(=O)NC1 (stereo not given) | < 30%
2 | O=C1NC(=S)S/C1=C/c1ccc(Cl)cc1Cl | 40%
3 | CCCCCNC(=S)NNC(=O)OCC | 60%
4 | Cc1c(C)c(C)c(CO/N=C/c2cccs2)c(C)c1C | 70%
5 | O=S(=O)(NCc1cccs1)c1ccc(Sc2ncc(C(F)(F)F)cc2Cl)s1 | < 30%
6 | O=C(CC12CC3CC(CC(C3)C1)C2)N1CCOCC1 | < 30%
7 | Cc1cc2c(cc1C)CSC(C)(c1ccc(F)cc1)SC2 | < 30%
8 | O/N=C/c1ccc2c(c1)CCO2 | < 30%
9 | COc1ccc(-c2[nH]ncc2CN2CCN(c3ccc(F)cc3)CC2)cc1 | < 30%
10 | CSC1=N/C(=C\c2ccc(Cl)cc2)C(=O)N1Cc1ccco1 | 60%
11 | CC(=O)C(C#N)c1nc(-c2ccc(F)cc2)cs1 (stereo not given) | 70%
12 | CC(C)(C)c1ccc(NC(=O)/C=C/C(=O)O)cc1 | < 30%
13 | CCOC(=O)c1cc2c(NC(=O)c3ccc(Cl)cc3)c(C(=O)OCC)sc2nc1C(F)(F)F | < 30%
14 | O=C(Nc1ccc(F)c(Cl)c1)c1ccccc1O | < 30%
15 | O=C(/C=C/c1ccc(OC(F)(F)F)cc1)NCc1ccco1 | 60%
16 | CCOC(=O)c1nn(-c2cccc(Cl)c2)cc(Sc2ccc(Cl)cc2)c1=O | 40%
17 | FC(F)(F)c1cccc(OCc2ccc(-c3ncns3)cc2)c1 | 50%
18 | C/C(=N\NC1=NCCN1Cc1ccccc1)c1ccc(C)cc1 | 70%
19 | CC(C)(C)NC(=O)CSc1nnc([C@H](Cc2ccccc2)NC(=O)OC(C)(C)C)o1 | 30%
20 | O=C1/C(=C\c2ccc(F)cc2)Sc2ccccc21 | < 30%
21 | Cc1c(-c2nc(-c3ccc(C(C)(C)C)cc3)no2)n(C)oc1=O | < 30%
22 | COc1ccc2nnc(-c3ccc(C(F)(F)F)cc3)n2n1 | < 30%
23 | Clc1cc(Cl)c(N/N=C/c2cc(C#Cc3ccccc3)cs2)c(Cl)c1 | 50%
24 | CCCCCCCCOc1ccc(S)nn1 | < 30%
25 | [O-][S+](c1ccc(Cl)cc1)c1ccc(-c2ccccn2)s1 (stereo not given) | < 30%

Source: ChEMBL document CHEMBL3727350, “Agents and methods for treating ischemic and other diseases” (2014)
